Data from patent publication US9428726B2, “Modified host cells with efflux pumps” (priority 2010, dated 2016).
Entries after “also recorded” stand apart in the source; their conditions may differ.

System: E. coli DH1 ΔacrAB
Conditions: for biofuel level that inhibited growth: added to pooled culture in M9 minimal medium, aimed at an inhibitory concentration that reduced growth by 25%; for outcome of efflux pump in competition: 2% geranyl acetate, serial dilution competition
Experimental: In order to screen the efflux pump library against a variety of biofuels we devised a competition-based strategy to select for pumps that improved biofuel tolerance (FIG. 1A). Cells containing plasmids with individual pumps were grown separately and then pooled so that all individual strains were represented equally. This pooled culture was then grown both with and without biofuel, and maintained through serial dilutions every 10-14 hours over a total of 96 hours. At each dilution time point, plasmids from each culture were isolated and a custom microarray was used to quantify the amount of each efflux pump plasmid present in the culture (Methods).
Pooled culture glycerol stocks were used to inoculate M9 minimal medium with 30 μg/ml kanamycin and 10 μM IPTG. The culture was then divided into tubes to a final volume of 5 ml and biofuel was added directly to the tubes. All conditions were prepared in triplicate. Cultures were grown at 37° C. with orbital shaking at 200 rpm for all experiments.
Every 10-14 hours the cultures were diluted 1:100 into 5 ml of fresh M9 minimal medium with kanamycin, IPTG, and biofuel (where applicable). For the time-course assay, cultures were spun down at the completion of a growth cycle and plasmids were isolated. For end point competition assays, plasmid was isolated from the culture after 72 hours of serial dilution.
Custom microarrays (NimbleGen, Roche, USA) were used to measure the relative quantities of the efflux pumps present in the plasmid DNA isolated from the competition cultures. Arrays were designed so that they contained probes for all HAE1 annotated efflux pumps from all sequenced bacterial genomes. 12×135K arrays were used to allow for 12 experiments per slide.
Plasmid DNA was labeled and hybridized following the protocol for NimbleGen Comparative Genomic Hybridization Microarrays with minor modifications (Supporting Methods). Data were normalized using the standard settings for RMA analysis in the NimbleScan software. Probe values were averaged using a custom Matlab script (Mathworks, Inc.). […] For the positive hybridization control, all library plasmids were prepared individually and combined in vitro in equal proportions. For the negative hybridization control, a plasmid with the same vector backbone as those in the library, but no efflux pump, was isolated from DH1 ΔacrAB. Both hybridization controls were labeled and hybridized to the array using the methods described above.
This required the use of a co-solvent in order to accurately pipette small volumes. In both cases dimethylformamide (DMF) was used as the co-solvent. […] Other biofuels were added directly without the use of a co-solvent.

Molecule	biofuel level that inhibited growth	outcome of efflux pump in competition	also measured
CN(C)C=O [DMF, dimethylformamide]	–	–	toxicity limit to E. coli (co-solvent amount present in the culture): > 0.2%
CCCCCC(=O)OCC=C(C)CCC=C(C)CCC=C(C)C [farnesyl hexanoate]	2.5 % v/v	–	–
C=C(C)[C@H]1CC=C(C)CC1 [limonene]	0.025 % v/v	–	–
CC1=CCC2CC1C2(C)C (stereo not drawn) [α-pinene]	2 % v/v	–	–
NP_250708: Pseudomonas aeruginosa PA01 efflux pump, accession of inner membrane protein, SEQ ID NO:4 (protein, listed as Pseudomonas aeruginosa) MARFFIDRPVFAWVISLLIVLAGVLAIRFLPVAQYPDIAPPVVNVSASYPGASAKVVEEAVTAIIEREMNGAPGLLYTKATSSTGQASLTLTFRQGVNADLAAVEVQNRLKIVESRLPESVRRDGIYVEKAADSIQLIVTLTSSSGRYDAMELGEIASSNVLQALRRVEGVGKVETWGAEYAMRIWPDPAKLTSMNLSASDLVNAVRRHNARLTVGDIGNLGVPDSAPISATVKVDDTLVTPEQFGEIPLRIRADGGAIRLRDVARVEFGQSEYGFVSRVNQMTATGLAVKMAPGSNAVATAKRIRATLDELSRYFPEGVSYNIPYDTSAFVEISIRKVVSTLLEAMLLVFAVMYLFMQNFRATLIPTLVVPVALLGTFTVMLGLGFSINVLTMFGMVLAIGILVDDAIIVVENVERLMAEEGLSPHDATVKAMRQISGAIVGITVVLVSVFVPMAFFSGAVGNIYRQFAVTLAVSIGFSAFLALSLTPALCATLLRPIDADHHEKRGFFGWFNRAFLRLTGRYRNAVAGILARPIRWMLVYTLVIGVVALLFVRLPQAFLPEEDQGDFMIMVMQPEGTPMAETMANVGDVERYLAEHEPVAYAYAVGGFSLYGDGTSSAMIFATLKDWSERREASQHVGAIVERINQRFAGLPNRTVYAMNSPPLPDLGSTSGFDFRLQDRGGVGYEALVKARDQLLARAAEDPRLANVMFAGQGEAPQIRLDIDRRKAETLGVSMDEINTTLAVMFGSDYIGDFMHGSQVRKVVVQADGAKRLGIDDIGRLHVRNEQGEMVPLATFAKAAWTLGPPQLTRYNGYPSFNLEGQAAPGYSSGEAMQAMEQLMQGLPEGIAHEWSGQSFEERLSGAQAPALFALSVLIVFLALAALYESWSIPLAVILVVPLGVLGALLGVSLRGLPNDIYFKVGLITIIGLSAKNAILIIEVAKDHYQEGMSLLQATLEAARLRLRPIVMTSLAFGFGVVPLALSSGAGSGAQVAIGTGVLGGIVTATVLAVFLVPLFFLVVGRLFRLRKAPRTGNSPQIPTEQA	–	survived the competition	–
NP_745594: Pseudomonas putida KT2440 efflux pump, accession of inner membrane protein, SEQ ID NO:3 (protein, listed as Pseudomonas putida) MPQFFIDRPVFAWVVALFILLAGALAIPQLPVAQYPNVAPPQVEIYAVYPGASAATMDESVVSLIEQELNGADNLLYFESQSSLGSATITATFAPGTHPDLAQVDVQNRLKVVESRLPRPVTQQGLQVEKVSTGFLLLATLTSEDGKLDETALSDILARNVMDEIRRLKGVGKAQLYGSERAMRIWIDPRKLIGFNLTPNDVAEAIAAQNAQVAPGSIGDLPSRSTQEITANVVVKGQLSSPDEFAAIVLRANPDGSTVTIGDVARVEIGAQEYQYGTRLNGKPATAFSVQLSPGANAMETATLVRAKMQDLARYFPEGVKYDIPYDTSPFVKVSIEQVINTLFEAMLLVFAVMFLFLQNLRYTLIPTLVVPVALMGTFAVMLAMGFSVNVLTLFGMVLAIGILVDDAIVVVENVERIMAEEGLPPKQATRKAMGQISGAIVGITLVLVAVFLPMAFMQGSVGVIYQQFSLSMAVSILFSAFLALSLTPALCATLLKPVAKGEHHERKGFFGWFNRRFESMSNGYQRWVVQALKRSGRYLLVYAVLLAVLGYGFSQLPTAFLPTEDQGYTITDIQLPPGASRMRTEQVAAQIEAHNAEEPGVGNTTLILGFSFSGSGQNAALAFTTLKDWSERGADDSAQSIADRATMAFTQLKDAIAYSVLPPPIDGLGESTGFEFRLQDRGGMGHAELMAARDQLLESASKSKVLTNVREASLAESPQVQLEIDRRQANALGVSFADIGTVLDVAVGSSYVNDFPNQGRMQRVVVQAEGDQRSQVEDLLNIHVRNDSGKMVPLGAFVQARWVSGPVQLTRYNGYPAVSISGEPAAGYSSGEAMAEVERLVAQLPAGTGLEWTGLSLQERLSGSQAPLLMALSLLVVFLCLAALYESWSIPTAVLLVVPLGVLGAVLAVTLRGMPNDVFFKVGLITLIGLSAKNAILIIEFAKHLVDQGVDAADAAVQAARLRLRPIVMTSLAFILGVVPLAIASGASSASQQAIGTGVIGGMLSATLAVVFVPVFFVVVMRLSGRRQAHDSDGQPVPRES	–	survived the competition	–
YP_692684: Alcanivorax borkumensis SK2 efflux pump, accession of inner membrane protein, SEQ ID NO:2 (protein, listed as Alcanivorax borkumensis) MARFFIDRPIFAWVIAIIMMMAGALAIYTLPIEQYPTVAPPQVSIAGNYPGASAKTVEDSVTQVIEQQMNGIDNLLYMSSSSDSFGNAAVNLTFAPGTDPDIAQVQVQNKLQLATPLLPQEVQQQGMQVTKSSDSFLMVAGFTSEDGSLSRADLADYVASNVQDPVSRVPGVGQIQLFGSPYAMRVWLDPNKLNKFDLTPQDVTQTIEVQNNQVASGQLGGAPAVEGQQLNATIIAQTRLEDVDQFENILLKVNPDGSRVFLKDVARVELAAQNYDVQGRYNGQPAAGLAISLATGANALDTAEALRARLAELQPYFPDKMEMVFPYDTTPFVSISIEEVVHTLFEAIILVFLVMYLFLQNFRATLIPTLAVPVVLLGTFAVLAAFGFSINTLTMFGMVLAIGLLVDDAIVVVENVERVMHEEGLPPKEATRKSMGQITGALVGIALVLSAVFVPMAFFPGSTGAIYRQFSITIVSAMVLSVLVALILTPALCATMLKAKDSEHQTDHGFFGWFNRTFDKSSRRYQGSVEKILGRRGRYLFIYVVIVGVLGFSFMRLPSSFLPEEDQGILFTLVTLPAGSTQEQTVKVLEKMEDYYLNEEASAVDGLFTVAGFSFTGRGQNAGMAFVNLKDWSERDLSVDGADNVVARAMGYFSTIREAMMFALNPPSIPELGNASGFDFQLLDQSGQGHEALIQARNQMLGMAAQDPRLAGVRPNGLEDSPQYQIDIDQQKAKALGLSISDINSTLQIAWGSSYVNNFVDRGRVKRVYVQADAPYRMLPENVNDWFVRNNQGKMVPFSTFATGHWTYGSPKLERYNGVSSVNIQGNAAPGYSTGDAMDAMEELSAKLPAGFGFEWTGMSYQERQSGDQAPALYVISLLVVFLCLAALYESWSIPFAVMLVVPLGILGAVLAATFRDLNNDVFFQVGLLTTIGLSAKNAILIAEFALELEQKGEHLLKATLEAVRMRLRPILMTSLAFMLGVTPLMISTGAGAGARNAIGTGVFGGMLTATVLAIFFIPLFYVAVRKLSGVPLDGKKKGKE	–	increase survival; also recorded: best pump	–
YP_957870: Marinobacter aqueolei efflux pump, accession of inner membrane protein, SEQ ID NO:1 (protein, listed as Marinobacter aqueolei) MINFFISRPVFSWVLAIVAMLAGIMAIFVLPVQRYPSVAPPAVEIQADYPGASADTVSNTVVQVIEQEMTGLDNLLYMGSTADSSGHATVTLTFAAGTDPDIAQVQVQNKLKLAEPRLPEVVRQQGISVEKSSTSFLMVMAFVSTDGRLSKLDIADFISSELAEPIGRVTGIGSVQVFGSEYAMRIWLDPSALTNYGLTVADVSAAIEAQNAQVTAGQLGGLPAVEGQQLNATVTAQTLLTSTEEFRNILLKSMPDGSRVRLGDVARVELGGGAVQIDTFYDGEPAAGLGINLAPGANSLAVTEAVKARLQELEPYFPEGVEIRYPYQTAPFVEASIDAVVTTIIEAIALVVLVMLVFLQSWRATLIPAIAIPVVLLGTFAIMAAFGFSINMLTLFGLVLAIGLLVDDAIVVVENVERVMHEDGLSPMEATRKSMGQIASALIGIGVVLSAVFIPMAFFPGSTGAIYRQFSLSIAGAMVLSVLVALILSPMLCGRILKPTHERTLLQKLFGWFEAGLGRLTRGYVRLVGHTARHAWLYTLAFLGIVGLVAVLFVRLPGGFLPAEDQGFAVVQYQLPAGATQQRTIDTIQVIEDYFMDQDEVQGLFTIAGFSFAGRAQNAGLAFVNLKPWSERDPETQSADAIIQRANRALAGLVRDGRAFAFNLPPIPELGQALGFELRLQDRGAIGHEALMAAQGQLLQLAAESPVLTSVRPNGLADNPRYKVDIDYEKAQALGIEPSEISRLLSVTWGSQYVNDFLHEGRVKRVYVQGDAPFRMLPEDFEAWYLRAANGEMTPLSEVTNGRWEYGSPRLERFNGVPSRQIQGEPAPGYSTGEAMAEVERLIAQLPDGVAGAWSGLSYQERQAGAQASLLYALSALVVFLALAALYESWTIPISVMLAVPLGVLGAVLAAMVRGLPNDVFFQVGILTTVGVTARNAILLVEFARSLEDQGMKLIEATKEAARVRLRPILMTSVAFGMGVLPLAFASGAGATTRIAIGTAVLGGMISATILATFFIPLFYVVVRRITDFLSGSRDQDDSAAAAPGRANGGVADDR	–	increase survival	–
